For the assay, the target named is T1, SETD2(1434-1711) (Homo sapiens, UniProt Q9BYW2).
T1 construct: SETD2 (1434-1711) Assay; catalogue N/A
T1 sequence (Q9BYW2 1434-1711): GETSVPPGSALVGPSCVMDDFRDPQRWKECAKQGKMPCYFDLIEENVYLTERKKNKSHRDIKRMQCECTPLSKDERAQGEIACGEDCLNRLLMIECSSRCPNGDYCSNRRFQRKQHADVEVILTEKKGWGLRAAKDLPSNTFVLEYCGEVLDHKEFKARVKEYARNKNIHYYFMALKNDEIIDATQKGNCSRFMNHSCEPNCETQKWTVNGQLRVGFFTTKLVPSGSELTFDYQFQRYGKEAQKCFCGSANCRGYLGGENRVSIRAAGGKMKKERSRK
The experiment in a line: SETD2 (1434-1711) assay. The note with it: read-out: SETD2 (1434-1711). In kind it is biochemical.
With `Cc1ccc(F)c2cc(C(=O)Nc3cccc(N4C5CCC4CN(C)C5)c3)[nH]c12` [compound 349], the IC50 is 0.2 µM.

Turning to `Cc1ccc(F)c2cc(C(=O)NC3C(=O)N(C)CCc4ccccc43)[nH]c12` (stereo not shown) [compound 390], the IC50 worked out at 0.5 µM.

Consider `Cc1c(CN2CCOCC2)cccc1NC(=O)c1cc2cccc(C)c2[nH]1` [compound 624], for which the IC50 was 10.9 µM. As for `Cc1cccc2cc(C(=O)N[C@H]3C[C@@H]4CC[C@H]3CN4C(=O)CCCN)[nH]c12` [compound 625], the IC50 stood at 11 µM. As for `Cc1cccc2cc(C(=O)NC3CCCN(c4ncccn4)C3)[nH]c12` (stereo not shown) [compound 626], the IC50 was 12.5 µM. `Cc1cccnc1C(CN(C)C)NC(=O)c1cc2cccc(C)c2[nH]1` (stereo not shown) [compound 627]: the IC50 was 13.2 µM. On to `CCOC(=O)N1CCC(NC(=O)c2cc3cccc(C)c3[nH]2)CC1` [compound 628], for which the IC50 was determined as 13.3 µM.

For `Cc1cccc2cc(C(=O)N[C@H]3CC[C@](C)(NC(=O)CCN)CC3)[nH]c12` [compound 629], the IC50 was found to be 14.5 µM. Take `CCOC(=O)C(CC1CCC1)NC(=O)c1cc2cccc(C)c2[nH]1` (stereo not shown) [compound 630]: the IC50 worked out at 14.6 µM. `Cc1cccc2cc(C(=O)N[C@H]3C[C@H]4CC[C@@H]3CN4C(=O)CCN)[nH]c12` [compound 631]: the IC50 was 15.3 µM. Take `Cc1cccc2cc(C(=O)Nc3ccncc3)[nH]c12` [compound 632]: the IC50 worked out at 15.6 µM. For the molecule `Cc1cccc2cc(C(=O)Nc3cccc(CN4CCOCC4)n3)[nH]c12` [compound 633], the IC50 came to 16.2 µM. For the molecule `COC(=O)C[C@@H](NC(=O)c1cc2cccc(C)c2[nH]1)c1cccc(Cl)c1` [compound 634], the IC50 is 16.3 µM. Consider `Cc1cccc2cc(C(=O)NCCc3ccccc3-c3ccccc3CN)[nH]c12` [compound 635], for which the IC50 amounted to 16.5 µM. For `Cc1cccc2cc(C(=O)NCc3ccccc3N3CCNCC3)[nH]c12` [compound 636], the IC50 amounted to 16.8 µM.

Consider `Cc1cccc2cc(C(=O)NC(c3ccccn3)c3ccccn3)[nH]c12` [compound 637], for which the IC50 came to 17.5 µM. `Cc1cccc2cc(C(=O)NCc3ccccc3N(C)C)[nH]c12` [compound 638]: the IC50 is 18.1 µM. As to `Cc1cccc2cc(C(=O)NC3CCN(C(=O)CCCN)CC3)[nH]c12` [compound 639], the IC50 came out at 18.5 µM. Take `Cc1cccc2cc(C(=O)NC3CC4CCC(C3)C4NC(=O)CCN)[nH]c12` (stereo not shown) [compound 640]: the IC50 came out at 18.5 µM. In the case of `Cc1cccc2cc(C(=O)N[C@H]3CC[C@@](C)(NC(=O)CCN)CC3)[nH]c12` [compound 641], the IC50 was found to be 18.5 µM. For `Cc1cccc2cc(C(=O)NC(c3cccc(F)c3)C(F)(F)F)[nH]c12` (stereo not shown) [compound 642], the IC50 came to 18.6 µM.

As to `Cc1cccc2cc(C(=O)NC3(c4cccnc4)CC3)[nH]c12` [compound 643], the IC50 was found to be 18.6 µM. For `Cc1ccc(C)c2[nH]c(C(=O)N[C@H]3CC[C@H](NC(=O)CCN)CC3)cc12` [compound 644] the value was 19.5 µM; for `Cc1cccc2cc(C(=O)N(C)[C@H]3CC[C@H](NC(=O)CCN)CC3)[nH]c12` [compound 645], 19.9 µM; for `Cc1cccc2cc(C(=O)NC3CCCN(S(=O)(=O)CCCN)C3)[nH]c12` (stereo not shown) [compound 646], 20.3 µM. For `COC(=O)CC(NC(=O)c1cc2cccc(C)c2[nH]1)c1ccco1` (stereo not shown) [compound 648] the value was 22.3 µM; for `COC(=O)CC(NC(=O)c1cc2cccc(C)c2[nH]1)c1ccsc1` (stereo not shown) [compound 649], 22.3 µM; for `COC(=O)CC(NC(=O)c1cc2cccc(C)c2[nH]1)c1cccs1` (stereo not shown) [compound 650], > 23 µM. Take `Cc1cccc2cc(C(=O)NC(C)c3ccc(-n4cccn4)cc3)[nH]c12` (stereo not shown) [compound 652]: the IC50 is 24.8 µM.

Consider `Cc1cccc2cc(C(=O)NCCc3ccc(Cl)cc3N3CCOCC3)[nH]c12` [compound 653], for which the IC50 was > 25 µM. As to `Cc1cccc2cc(C(=O)NC3C[C@@H]4CC[C@H]3C4)[nH]c12` (stereo partly shown) [compound 654], the IC50 was found to be 25.1 µM.

For the origin of these results see US12116358B2, “Substituted indoles and methods of use thereof” (EPIZYME, INC., priority 2018, dated 2024).
